Data on 16 molecules can be found in US20240025919A1, “AZA-TETRACYCLIC OXAZEPINE COMPOUNDS AND USES THEREOF” (Genentech, Inc., priority 2022, published 2024).

For orientation: IC50 means the concentration at which inhibition is half-maximal.

In assay [1] the target is T1, KRAS WT (Homo sapiens (Human), UniProt P01116). Nature of the assay: KRAS WT Biochemical Assay, BODIPY-GDP Exchange TR-FRET (Example 502; 0.06 nM KRAS WT, 15 nM GDP, 300 nM SOS1, 120-minute incubation). The following applies: read-out: KRas HTRF IC50. The protocol: Example 502: KRAS WT Biochemical Assay, BODIPY-GDP Exchange TR-FRET. Biochemical compound potencies are assessed by evaluating inhibition of SOS1-mediated nucleotide exchange in KRAS WT. In this assay, the SOS1-promoted exchange of fluorescently-labeled GDP (BOPIDY-GDP) is monitored by time-resolved fluorescence resonance energy transfer (TR-FRET). Compounds solubilized in DMSO are dispensed as concentration series into 384-well white assay plates. A preformed complex of 0.06 nM biotin-tagged recombinant human KRAS WT, 15 nM GDP and 0.06 nM terbium-labeled streptavidin (CisBIO) prepared in 10 uL/well assay buffer (20 mM HEPES, pH 7.5, 50 mM NaCl, 10 mM MgCl2, 0.01% Tween-20 and 1 mM dithiothreitol) is added and allowed to incubate for 10-minutes at room temperature. The reaction is initiated with the addition of 5 uL 300 nM recombinant human SOS1 and 300 nM BODIPY-GDP in assay buffer. After a 120-minute incubation, the fluorescence is measured with excitation at 337 nm and emission at 490 and 520 nm. The TR-FRET ratio is determined as the fluorescence at 520 nm divided by the fluorescence at 490 nm multiplied by 10,000. The results are normalized to percent inhibition based on control samples: DMSO (0% inhibition) and control compound at a concentration that inhibits completely (100% inhibition). The normalized TR-FRET results are plotted against compound concentration, and the data are fit to a 4-parameter Hill equation to determine the IC50 values.
T1 sequence (P01116-2 other isoform, or with tags, fused parts or gaps): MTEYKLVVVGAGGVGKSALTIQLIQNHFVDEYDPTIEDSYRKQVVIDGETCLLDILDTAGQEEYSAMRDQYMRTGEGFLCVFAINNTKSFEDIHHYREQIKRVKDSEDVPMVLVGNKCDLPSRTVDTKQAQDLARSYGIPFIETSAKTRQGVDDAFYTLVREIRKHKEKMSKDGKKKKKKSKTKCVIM
(In TR-FRET formats the signal depends on donor and acceptor labels being close together.)

The target in a further assay is KRAS G12D (Homo sapiens (Human), UniProt P01116, G12D). Nature of the assay: KRAS G12D LoEnz Biochemical Assay, BODIPY-GDP Exchange TR-FRET (SOS1-mediated nucleotide exchange). The following applies: read-out: KRas (G12D) GDP HTRF IC50.
KRAS G12D, sequence (P01116-2 other isoform, or with tags, fused parts or gaps G12D): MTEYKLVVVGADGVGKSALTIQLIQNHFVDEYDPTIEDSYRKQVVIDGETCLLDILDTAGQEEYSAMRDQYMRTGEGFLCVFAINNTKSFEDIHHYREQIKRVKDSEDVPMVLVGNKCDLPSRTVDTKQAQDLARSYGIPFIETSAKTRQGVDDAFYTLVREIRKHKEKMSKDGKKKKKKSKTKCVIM
The target of assay [2] is T1, KRAS WT. Nature of the assay: KRAS WT Biochemical Assay, BODIPY-GDP Exchange TR-FRET (Example 501; 3 nM KRAS WT, 3 nM SOS1, 60-minute incubation). Particulars: read-out: KRas HTRF IC50. The essentials: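 SOS1-mediated exchange assay: 3 nM biotin-KRAS WT with terbium-streptavidin, started with 3 nM SOS1 and 300 nM BODIPY-GDP, HEPES pH 7.5 with MgCl2. TR-FRET (520/490 nm) read after 60 min; normalized to DMSO and full-inhibition control, IC50 from 4-parameter Hill fit.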

SMILES strings stand for the structures.

`Cc1c(F)c(N)cc(-c2nc3c4c(nc(OC[C@H]5C[C@@H]6COCCN65)nc4c2F)N2C[C@H]4CC[C@H](N4)[C@H]2[C@H](C)O3)c1C(F)(F)F` (mixture of isomers) [159 (mixture), 5-((5S,5aS,6S,9R)-12-((4-Oxa-1-azabicyclo[4.2.0]octan-8-yl)methoxy)-1-fluoro-5-methyl-5a,6,7,8,9,10-hexahydro-5H-4-oxa-3,10a,11,13,14-pentaaza-6,9-methanonaphtho[1,8-ab]heptalen-2-yl)-2-fluoro-3-methyl-4-(trifluoromethyl)aniline]: the IC50 was 45.2 nM on KRAS WT [1] and 0.23 nM on KRAS G12D.

Regarding `Cc1c(F)c(N)cc(-c2nc3c4c(nc(OCC5CCC6CN(C)C(=O)CN56)nc4c2F)N2C[C@H]4CC[C@H](N4)[C@H]2[C@H](C)O3)c1C(F)(F)F` (mixture of isomers) [Compound 124, 6-((((5S,5aS,6S,9R)-2-(5-Amino-4-fluoro-3-methyl-2-(trifluoromethyl)phenyl)-1-fluoro-5-methyl-5a,6,7,8,9,10-hexahydro-5H-4-oxa-3,10a,11,13,14-pentaaza-6,9-methanonaphtho[1,8-ab]heptalen-12-yl)oxy)methyl)-2-methylhexahydropyrrolo[1,2-a]pyrazin-3(4H)-one], the IC50 on KRAS WT [1] worked out at 619 nM; at KRAS G12D it was 1.74 nM.

In the case of `Cc1c(F)c(N)cc(-c2nc3c4c(nc(OC[C@@H]5CC[C@@H]6CC(F)(F)CCN65)nc4c2F)N2C[C@H]4CC[C@H](N4)[C@H]2[C@H](C)O3)c1C(F)(F)F` (single isomer, unassigned) [119 (isomer 1)], the figures for the IC50 on KRAS WT [1] and at KRAS G12D were 787 nM and 4.38 nM, respectively.

For the molecule `Cc1c(F)c(N)cc(-c2nc3c4c(nc(OC[C@@H]5CCC6CC(F)(F)CCN65)nc4c2F)N2C[C@H]4CC[C@H](N4)[C@H]2[C@H](C)O3)c1C(F)(F)F` (single isomer, unassigned) [119 (isomer 2)], the IC50 on KRAS WT [1] is 75 nM; on KRAS G12D it was 0.37 nM.

On to `Cc1c(F)c(N)cc(-c2nc3c4c(nc(OC[C@@]5(CCF)CCCN5C)nc4c2F)N2C[C@H]4CC[C@H](N4)[C@H]2[C@H](C)O3)c1C(F)(F)F` (single isomer, unassigned) [127 (isomer 1)], for which the IC50 on KRAS WT [1] came to 17.9 nM; on KRAS G12D it was 0.14 nM.

In the case of `Cc1c(F)c(N)cc(-c2nc3c4c(nc(OC[C@]5(CCF)CCCN5C)nc4c2F)N2C[C@H]4CC[C@H](N4)[C@H]2[C@H](C)O3)c1C(F)(F)F` (single isomer, unassigned) [127 (isomer 2)], the IC50 at KRAS WT [1] worked out at 37.7 nM; at KRAS G12D, 0.19 nM.

For the molecule `Cc1c(F)c(N)cc(-c2nc3c4c(nc(OC[C@@H]5CC[C@@H]6C[C@@H](C(=O)N(C)C)CCN65)nc4c2F)N2C[C@H]4CC[C@H](N4)[C@H]2[C@H](C)O3)c1C(F)(F)F` (single isomer, unassigned) [133 (isomer 1)], the figures for the IC50 at KRAS WT [1] and at KRAS G12D were 13.6 nM and 0.12 nM, respectively.

With `C[C@@H]1Oc2nc(-c3cc(N)c(F)c(F)c3CC(F)F)c(F)c3cc(OC[C@@H]4CC[C@H]5COCCN54)nc(c23)N2C[C@H]3CC[C@H](N3)[C@@H]12` [Compound 158, 4-(2,2-Difluoroethyl)-2,3-difluoro-5-((5S,5aS,6S,9R)-1-fluoro-13-(((6S,8aS)-hexahydro-1H-pyrrolo[2,1-c][1,4]oxazin-6-yl)methoxy)-5-methyl-5a,6,7,8,9,10-hexahydro-5H-6,9-epiminoazepino[2′,1′:3,4][1,4]oxazepino[5,6,7-ij][2,7-]naphthyridin-2-yl)aniline], the IC50 at KRAS WT [1] came out at 121 nM.

For the molecule `Cc1nc(N)cc(-c2nc3c4c(nc(OCC5(CN6C[C@H](F)C[C@H](F)C6)CC5)nc4c2F)N2C[C@H]4CC[C@H](N4)[C@H]2[C@H](C)O3)c1C(F)(F)F` [Compound 269, 4-((5S,5aS,6S,9R)-12-((1-(((3S,5R)-3,5-difluoropiperidin-1-yl)methyl)cyclopropyl)methoxy)-1-fluoro-5-methyl-5a,6,7,8,9,10-hexahydro-5H-4-oxa-3,10a,11,13,14-pentaaza-6,9-methanonaphtho[1,8-ab]heptalene-2-yl)-6-methyl-5-(trifluoromethyl)pyridin-2-amine], the results for the IC50 at KRAS WT [2] and at KRAS G12D were 105 nM and 0.42 nM, respectively.

As for `COCC1(F)CCN(CC2(COc3nc4c5c(nc(-c6cc(N)nc(C)c6C(F)(F)F)c(F)c5n3)O[C@@H](C)[C@@H]3[C@@H]5CC[C@H](CN43)N5)CC2)C1` (stereo partly drawn) [Compound 270, 4-((5S,5aS,6S,9R)-1-fluoro-12-((1-((3-fluoro-3-(methoxymethyl)pyrrolidin-1-yl)methyl)cyclopropyl)methoxy)-5-methyl-5a,6,7,8,9,10-hexahydro-5H-4-oxa-3,10a,11,13,14-pentaaza-6,9-methanonaphtho[1,8-ab]heptalen-2-yl)-6-methyl-5-(trifluoromethyl)pyridin-2-amine], the IC50 on KRAS WT [2] stood at 10.7 nM; on KRAS G12D it was 0.26 nM.

As for `COC1(C(F)F)CN(CC2(COc3nc4c5c(nc(-c6cc(N)nc(C)c6C(F)(F)F)c(F)c5n3)O[C@@H](C)[C@@H]3[C@@H]5CC[C@H](CN43)N5)CC2)C1` [Compound 271, 4-((5S,5aS,6S,9R)-12-((1-((3-(difluoromethyl)-3-methoxyazetidin-1-yl)methyl)cyclopropyl)methoxy)-1-fluoro-5-methyl-5a,6,7,8,9,10-hexahydro-5H-4-oxa-3,10a,11,13,14-pentaaza-6,9-methanonaphtho[1,8-ab]heptalene-2-yl)-6-methyl-5-(trifluoromethyl)pyridin-2-amine], the figures for the IC50 at KRAS WT [2] and on KRAS G12D were 56.4 nM and 0.51 nM, respectively.

`COC1(CF)CN(CC2(COc3nc4c5c(nc(-c6cc(N)nc(C)c6C(F)(F)F)c(F)c5n3)O[C@@H](C)[C@@H]3[C@@H]5CC[C@H](CN43)N5)CC2)C1` [Compound 272, 4-((5S,5aS,6S,9R)-1-fluoro-12-((1-((3-(fluoromethyl)-3-methoxyazetidin-1-yl)methyl)cyclopropyl)methoxy)-5-methyl-5a,6,7,8,9,10-hexahydro-5H-4-oxa-3,10a,11,13,14-pentaaza-6,9-methanonaphtho[1,8-ab]heptalene-2-yl)-6-methyl-5-(trifluoromethyl)pyridin-2-amine]: the values for the IC50 at KRAS WT [2] and at KRAS G12D were 24.4 nM and 0.38 nM, respectively.

With `COC1(C)CN(CC2(COc3nc4c5c(nc(-c6cc(N)nc(C)c6C(F)(F)F)c(F)c5n3)O[C@@H](C)[C@@H]3[C@@H]5CC[C@H](CN43)N5)CC2)C1` [Compound 273, 4-((5S,5aS,6S,9R)-1-fluoro-12-((1-((3-methoxy-3-methylazetidin-1-yl)methyl)cyclopropyl)methoxy)-5-methyl-5a,6,7,8,9,10-hexahydro-5H-4-oxa-3,10a,11,13,14-pentaaza-6,9-methanonaphtho[1,8-ab]heptalene-2-yl)-6-methyl-5-(trifluoromethyl)pyridin-2-amine], the IC50 at KRAS WT [2] was 17.1 nM; on KRAS G12D, 0.29 nM.

Turning to `Cc1nc(N)cc(-c2nc3c4c(nc(OCC5(CN6CC(C(F)F)C6)CC5)nc4c2F)N2C[C@H]4CC[C@H](N4)[C@H]2[C@H](C)O3)c1C(F)(F)F` [Compound 274, 4-((5S,5aS,6S,9R)-12-((1-((3-(difluoromethyl)108eptalene-1-yl)methyl)cyclopropyl)methoxy)-1-fluoro-5-methyl-5a,6,7,8,9,10-hexahydro-5H-4-oxa-3,10a,11,13,14-pentaaza-6,9-methanonaphtho[1,8-ab]heptalene-2-yl)-6-methyl-5-(trifluoromethyl)pyridin-2-amine], the IC50 at KRAS WT [2] was 25.7 nM; on KRAS G12D it was 0.34 nM.

On to `CO[C@@H]1CCN(CC2(COc3nc4c5c(nc(-c6cc(N)nc(C)c6C(F)(F)F)c(F)c5n3)O[C@@H](C)[C@@H]3[C@@H]5CC[C@H](CN43)N5)CC2)C[C@@H]1F` [Compound 275, 4-((5S,5aS,6S,9R)-1-fluoro-12-((1-(((3S,4R)-3-fluoro-4-methoxypiperidin-1-yl)methyl)cyclopropyl)methoxy)-5-methyl-5a,6,7,8,9,10-hexahydro-5H-4-oxa-3,10a,11,13,14-pentaaza-6,9-methanonaphtho[1,8-ab]heptalene-2-yl)-6-methyl-5-(trifluoromethyl)pyridin-2-amine], for which the IC50 at KRAS WT [2] came to 23.3 nM; at KRAS G12D it was 0.48 nM.

`Cc1nc(N)cc(-c2nc3c4c(nc(OCC5(CN6CCC(C(F)F)C6)CC5)nc4c2F)N2C[C@H]4CC[C@H](N4)[C@H]2[C@H](C)O3)c1C(F)(F)F` (stereo partly drawn) [Compound 276, 4-((5S,5aS,6S,9R)-12-((1-((3-(difluoromethyl)pyrrolidin-1-yl)methyl)cyclopropyl)methoxy)-1-fluoro-5-methyl-5a,6,7,8,9,10-hexahydro-5H-4-oxa-3,10a,11,13,14-pentaaza-6,9-methanonaphtho[1,8-ab]heptalen-2-yl)-6-methyl-5-(trifluoromethyl)pyridin-2-amine]: the IC50 on KRAS WT [2] is 8.91 nM; on KRAS G12D, 0.26 nM.
